Where two headings read alike, the source gives them in different places.

In assay [1] the test system is WFA-mediated PD-L1 and ecto-CRT increase in NSCLC cell lines. The assay is described as follows: ROS scavenger added to WFA, PD-L1 and ecto-CRT, NSCLC. The format is cell-based, mouse (LLC), human (H1650, A549). To be noted: 24 h; for effect on WFA-mediated PD-L1 increase: WFA + 5 mM scavenger, flow cytometry and qRT-PCR (NAC), flow cytometry (GSH). (In general: In flow cytometry, cells or beads pass a laser one at a time.)
Description: NSCLC cell lines were treated with WFA (0.6 μM in LLC, H1650 cells, 4 μM in A549 cells), or a combination of WFA+5 mM NAC for 24 h. (FIGS. 4A, 4D, 4G) The change in ROS levels were measured in LLC (FIG. 4A), H1650 (FIG. 4D), and A549 (FIG. G). (FIGS. 4B, 4E, 4H) by flow cytometry. The change in PD-L1 levels was measured in LLC (FIG. 4B), H1650 (FIG. 4E), and A549 (FIG. 4H) cell lines using flow cytometry and qRT-PCR. (FIG. 4C, 4F, 4I) Ecto-CRT levels were measured in LLC (FIG. 4C), H1650 (FIG. 4F), and A549 (FIG. 41) by flow cytometry. Means of two independent experiments ±SEM are shown, except for the PCR experiments that were repeated twice and for which one representative experiment is shown. Statistical significance was calculated using one-way ANOVA and a Fisher LSD post hoc test where * is p<0.05, ** is p<0.01,*** is p<0.001, and **** is p<0.0001.
All cells were treated with 0.6 μM WFA except A549, 4t1 and MDA-MB-231 cells which were treated with 4 μM, 1 μM, 2 μM WFA, respectively. […] PCR experiments were repeated twice, and one representative experiment is shown as mean±SEM of 3 technical replicates. Flow cytometry experiments were performed twice and the mean±SEM of two representative experiments is shown. Treatments were compared to the control using one-way ANOVA and Fisher LSD post hoc test. * p<0.05, ** p<0.01, *** p<0.001, **** p<0.0001.
To test our hypothesis, we treated NSCLC cell lines with WFA, NAC, or a combination of both.

The test system of assay [2] is PD-L1 upregulation in MC-38, HCT-116, 4T-1, and MDA-MB-231 cell lines. The assay can be described thus: PD-L1 with WFA and NAC in colorectal and breast cancer cell lines. To be noted: 5 mM NAC; MC-38, HCT-116, 4T-1, MDA-MB-231. The format is cell-based, mouse (MC-38, 4T1), human (HCT-116.
In assay [3] the test system is ROS levels in NSCLC cell lines. The assay is described as follows: ROS levels with ROS indicator CM-H2DCFDA. It is filed as cell-based, mouse (LLC), human (H1650. The following applies: 24 h; WFA 0.6 μM (LLC, H1650), 4 μM (A549); NAC 5 mM.
Assay [4] concerns WFA-induced PD-L1 upregulation in NSCLC cells. The assay can be described thus: Pharmacologic inhibitors added to WFA, PD-L1 by flow cytometry. It is filed as cell-based, mouse (LLC), human (H1650, A549).

As to `N[C@@H](CCC(=O)N[C@@H](CS)C(=O)NCC(=O)O)C(=O)O` [Glutathione, L-Glutathione], in assay [1], the “effect on WFA-mediated PD-L1 increase” value was “abrogated”. `CC(=O)N[C@@H](CS)C(=O)O` [NAC, N-acetyl cysteine, reference compound]: in assay [2], the “effect on WFA-mediated PD-L1 upregulation” value is reported as “completely reversed”. In assay [1] (WFA + 5 mM NAC), the “effect on WFA-induced ecto-CRT expression” value was “completely reversed”. Also, the “effect on WFA-mediated PD-L1 increase” value in assay [1] was “completely reversed”. For the same compound, the ROS levels result in assay [3] is given as “reduced”. On to `O=[N+]([O-])c1ccc2c(c1)S(=O)(=O)C=C2` [STATTIC], for which the “effect on WFA-induced PD-L1 upregulation” value in assay [4] (WFA + inhibitor, 24 h, STATTIC: LLC, H1650, PX-478: LLC, brusatol: LLC, H1650, A549) is given as “neither STATTIC nor PX-478 were able to reverse”. Take Brusatol: in assay [4], the “effect on WFA-induced PD-L1 upregulation” value is reported as “completely abrogated”.

The values are drawn from patent US20240293430A1, “WITHAFERIN A AND IMMUNE CHECKPOINT BLOCKER COMBINATION THERAPIES” (University of South Florida, priority 2023, published 2024).
